The source of these data is patent US12343335B2, “Pharmaceutical composition for treating multiple sclerosis on basis of AMPK inhibitory function and zinc homeostasis control function” (ZINCURE CORP., priority 2019, dated 2025).

One assay concerns neuronal cell death. The conditions noted are these: after stroke; Eom J. W. et al., ACS Chem Neurosci. 2019; cited from earlier work.
Assay [1] has as its system spinal cord white matter of EAE mice. Kind of assay: Zinc staining (TSQ) of spinal cord of EAE mice. It is filed as in vivo, C57BL/6 female mice. To be noted: day 21 after EAE induction.
The test system of the next assay is cultivated neurons. Kind of assay: Cytosolic zinc level in cultured neurons with FluoZin-3. The conditions noted are these: neurons exposed to zinc (300 μM) for 15 minutes, measured for 60 min. In kind it is cell-based, mouse. How it is done: The mouse cortical neurons used in the present invention were extracted from the brain of a mouse embryo, and cultured in Dulbecco's modified Eagle's medium (DMEM, Gibco, Grand Island, NY, US) supplemented with 5% fetal bovine serum (FBS) and 5% horse serum (HS) under the condition of 95% humidity, 5% CO2 and 37° C. For activation and differentiation of the cells, the cells were grown to a density of 2×10^4 cells in a 24-well tissue culture plate and cultured in MEM medium without FBS and HS before treatment with zinc and compounds.
The present inventors treated FluoZin-3, a substance illuminate fluorescence if it bind to free zinc to cultivated neurons in order to verify the possibility of zinc chelation according to the treatment of 1H10 {(Z)-5-((1H-indol-3-yl)methylene)-2-((3-hydroxyphenyl)amino)thiazol-4(5H)-one} according to an embodiment of the present invention, and then measured cytosolic zinc level in the neurons for 60 min after exposing zinc (300 μM) for 15 minutes and removing the zinc. In addition, 20 μM zinc (ZnCl2) and NewPort Green DCF fluorophore, which emits fluorescence when it bind to zinc, were added to the test tube, and 1H10 of the present invention was treated at various concentrations. Clioquinol, a zinc chelator, and calcium ionophore Phosphorus ionomycin was used as controls. […]

In assay [2] the test system is MOG35-55-induced experimental autoimmune encephalomyelitis (EAE). Kind of assay: Long-term EAE model, 45 days after initial immunization. It is filed as in vivo, C57BL/6 female mice. The conditions noted are these: intraperitoneally once a day. How it is done: (§1) The present inventors induced experimental autoimmune encephalomyelitis (EAE), an animal model of multiple sclerosis, by subcutaneously injecting Myelin oligodendrocyte glycoprotein 35-55 (MOG35-55) peptide antigen into C57BL/6 female mice (FIG. 1A). For this, MOG35-55 (Ana spec, USA) and Complete freund's adjuvant (CFA) were first prepared, and MOG35-55 (2 mg/ml) was dissolved in Phosphate buffered saline (lx PBS, Sigma), and then the 25 ml of CFA was prepared by dispending 25 ml of incomplete freund's adjuvant (IFA. Sigma) in a 50 ml conical tube. Then, in a fume hood, Mycobacterium tuberculosis H37Ra (100 mg; Difco, USA) was added to the IFA in order to prepare CFA and store it in the refrigerator after vortexing before use. Thereafter, MOG35-55 and CFA containing Mycobacterium tuberculosis H37Ra was mixed in the same amount and injected into both flanks of the mice. And then Pertussis toxin (4 μg/ml, List Biological Laboratories, USA) was injected intraperitoneally on the day of immunization and on the second day after immunization. After the immunization, the mice's body weight and clinical symptoms were measured every day, and the degree of EAE progression was evaluated based on specific clinical symptoms. More details on this are provided below.
(§2) EAE clinical symptom was evaluated based on previous studies (Jones et al., J. Neuroimmunol. 199(1-2): 83-93. 2008). […]

Assay [3] shares this test system. Kind of assay: EAE clinical symptom assessment and incidence rate, 21 days after immunization. In kind it is in vivo, C57BL/6 female mice. The conditions noted are these: EAE mice, 1H10 intraperitoneally once a day, vs vehicle.
Source text: The experimental animals used in the present invention are an 8-week-old, C57BL/6 female mice supplied from Dae Han BioLink, Co., Ltd. (Korea). These mice were bred in an environment controlled by temperature and humidity, and feed and water were fed freely.
as §1, with “Thereafter, MOG35-55 and CFA containing Mycobacterium tuberculosis H37Ra was mixed in the same amount and injected into both flanks of the mice. And then Pertussis toxin (4 μg/ml, List Biological Laboratories, USA) was injected intraperitoneally on the day of immunization and on the second day after immunization.” left out, “More details on this are provided below.” left out
as §2

The subject of another assay is spinal cord of EAE mice. Kind of assay: Cresyl violet staining of spinal cord of EAE mice (mononuclear cell infiltration). In kind it is in vivo, C57BL/6 female mice. To be noted: spinal cord white matter, day 21 after EAE induction, vs vehicle. As to the method:
as §1, with “below. […]” for “below.”

On to `O=C1N=C(Nc2cccc(O)c2)S/C1=C\c1c[nH]c2ccccc12` [1H10, (Z)-5-((1H-indol-3-yl)methylene)-2-((3-hydroxyphenyl)amino)thiazol-4(5H)-one], for which, in the assay with neuronal cell death, the “neuronal cell death caused by zinc toxicity, excitory toxicity and oxidative damage” value is “reduced”. The “patch-like TSQ abnormal staining (zinc accumulation)” value in assay [1] is recorded as “significantly reduced”. Besides, the “increase of intracellular zinc level (FluoZin-3)” value with cultivated neurons is on record as “significantly reduced”. For the same molecule, in assay [2], the clinical symptoms entry is “significantly reduced” and the incidence rate result is reported as “significantly reduced”. Besides, in assay [3], the “behavioral disorders (EAE clinical score)” value was “significantly inhibited” and the incidence rate entry is given as “suppressed”. For the same molecule, the mononuclear cell infiltration entry with spinal cord of EAE mice is listed as “significantly inhibited”.
